Consider 2 molecules from patent US12667571B2, “Uridine phosphorylase (UPase) inhibitors for treatment of liver conditions” (Tosk, Inc., priority 2019, dated 2026).

By half-life is commonly meant the time in which the quantity being followed falls by half. High values mean slow decline, low ones rapid decline.

One data set relates to plasma UR. In words: Plasma UR concentration versus plasma Compound 1 concentration after continuous sc osmotic-pump infusion. Type of data set: in vivo. Conditions: BDF-1 male mice, result in words. The procedure:
For this reason continuous infusion of compound I (authentic TK-112690, Batch TCY90108) to BDF-1 ♂ mice were administered via a sc implanted osmotic pumps and the UR plasma concentration measured, ^46 Deng Y, Wang Z V, Gordillo R, An Y, Zhang C, Liang Q, Yoshino J, Cautivo K M, De Brabander J, Elrnquist J K, Horton J D, Hill J A, Klein S, Scherer P E. An adipo-biliary-uridine axis that regulates energy homeostasis. Science 2017, 17; 355(6330)
Solutions of Compound I were prepared at a concentration of 500 mg/mL in sterile PBS. Osmotic pumps (ALZET® micro-osmotic pump 2001 D and 1003D, Alza Co) were loaded with 200 μL (2001D osmotic pump) and/or 100 μL (1003D osmotic pump) of TK-112690 solution.
BDF-1 male mice (n=6) were treated with a constant-rate infusion of 667, 833 or 3000 mg/kg/day doses of Compound I delivered via subcutaneously implanted osmotic pumps. Animals were anesthetized with 100 mg/kg ketamine prior to pump implantation. Surgical scissors were used to make an approximately 1 cm incision on the dorsal surface near the shoulder blade of animals. A hemostat was used to carve out a subcutaneous tunnel toward the anterior end of animal. Osmotic pumps were placed inside the subcutaneous tunnel. […]
A solid-phase extraction (SPE) of analytes (UR, Compound I and 5-FU) from plasma was conducted before HPLC analysis. […] Samples were transferred into fresh HPLC vials and analyzed. […]

In data set [1] the test system is C57BL/6 mice fed an MCD diet. In words: Methionine-choline deficient diet (MCD) model of NASH. Format: in vivo. Conditions: end of MCD study; ip bid 28 days. Here is the method:
Mice fed an MCD diet is a standard model of diet induced NASH.^47,48 All animals were housed in ventilated standard housing cages throughout the experimental phase. Tap water was provided ad libitum to all animals. Male, 8-week old, C57BL/6 mice from Charles River were acclimated for 3 days maintained on a standard chow diet and group housed in hepa-filtered cages (5 animals per cage) on a normal 12 hours light cycle (at 8 am to 8 pm lights off). The temperature and humidity were 22±2° C. and 50±10%, respectively. Cages litters were changed once a week. ^47 Reid D T, Reyes J L, McDonald B A, Vo T, Reimer R A, Eksteen B. Kupffer Cells Undergo Fundamental Changes during the Development of Experimental NASH and Are Critical in Initiating Liver Damage and Inflammation. PLoS One. 2016, 25; 11:e0159524.^48 Ramadori P, Weiskirchen R, Trebicka J, Streetz K. Mouse models of metabolic liver injury. Lab Anim. 2015; 49(1 Suppl):47-58.
Following acclimation, the animals were randomized into homogenous treatment groups according to their body weight, and fed ad libitum a diet deficient in methionine and choline: 4.2 kcal/g; MP Biomedicals, Solon, OH). Food and water intake were measured 3 times per week (at the same time as body weight measurements). After the acclimation period, the 24 mice (n=6/treatment group) were weighed 3 times per week until sacrifice.
The 4 treatment group were: • Group 1: Vehicle+MCD • Group 2: MCD+200 mg/kg UR • Group 3: MCD+60 mg/kg Compound I • Group 4: MCD+60 mg/kg Compound 1 plus 200 mg/kg UR 30 minutes post Compound 1
All Compound 1 and UR doses (mg/kg in 10 mL/kg of vehicle) were ip, bid at least 8 hours apart, for 28 days. Vehicle=PBS. Vehicle, UR and Compound 1±UR will be dosed daily starting 2 days prior to placing the animals on a MCD diet. Mice were on the MCD diet for 26 days.
After 26 days on MCD, the animals were sacrificed ˜2 hours after the last dose and non-fasted glucose was measured along with a plasma lipid panel, TNF-α, ALT and AST. Total body weight was determined weekly. Total liver was weighed and the medial lobe excised, formalin fixed and stained with Oil Red O to evaluate lipid content. An intensity score for the fixed tissue slides measured by an independent histopathologist was also determined.

The nature of data set [2]: Elimination t1/2 of Compound 1 in mice. To be noted: mouse, in vivo.
Data set [3] deals with C57BL/6 mice fed an MCD diet. Kind of data set: Methionine-choline deficient diet (MCD) model of NASH. Format: in vivo. Conditions: H&E liver sections, end of MCD study; ip bid 28 days; FIG. 4.
The conditions of data set [4]: UR, reference 46; cited from earlier work.

Each structure is given as a SMILES string. Entries after “also recorded” stand apart in the source; their conditions may differ.

On to `Cc1cn2c(nc1=O)O[C@H]1[C@H](O)[C@@H](CO)O[C@H]12` [Compound 1], for which the “effect on plasma UR level” value with plasma UR was “elevate plasma UR in a linear fashion; also recorded: associated with higher levels of UR”. Besides, in data set [1], the ALT result is “no difference”, the AST entry is reported as “no difference”, the cholesterol result is “no difference” and the total triglycerides entry was “no difference”. This molecule displayed a half-life in data set [2] of 1 to 2 h. Also, the “liver fibrosis scoring compared to vehicle treated controls” value in data set [3] is reported as “statistically different”.
`O=c1ccn([C@@H]2O[C@H](CO)[C@@H](O)[C@H]2O)c(=O)[nH]1` [UR, uridine]: in data set [1], the ALT entry is “no difference”, the AST entry is “no difference”, the cholesterol result is reported as “no difference” and the total triglycerides result is reported as “no difference”. For the same molecule, in data set [3], the “liver fibrosis scoring compared to vehicle treated controls” value was “statistically different”. Moreover, the “elimination t1/2” value in data set [4] is given as “only a few minutes”.
